In patent US20100311170A1, “METHOD FOR REPROGRAMMING DIFFERENTIATED CELLS” (priority 2008, published 2010):

Assays:
Format in all cases: cell-based, mouse
[1] = test system: ES-neo cells with ES-Hygro cells; assay: PEG fusion of BIO-pretreated ES-neo cells with ES-Hygro cells (fusion control)
Experimental: FIG. 6. […] Plates containing fused hybrid colonies between ES-neo cells (treated or not for 24 h with BIO) and non-treated ES-hygro cells. The clones were stained for the expression of AP and counted. The fold-change of colonies are shown in the graphs (mean±s.e.m.; n=3). (B) Quantification (as fold-increases in the number of colonies) of hybrid colonies from PEG fusions of ES-neo cells with NS-Oct4-puro cells. Hybrids from two fusion experiments (2,000,000 cells/flask) were allowed to recover for 3 h after PEG fusion. They were then pooled and divided in 5 plates ([…]) in such a way that the cells were not touching each other. Two hours after the plating, the cells were treated with BIO, as indicated. The fold-change increases in the reprogrammed colonies are shown in the graphs (mean±s.e.m.; n=3).

[2] = test system: EF4 cells and NS-Oct4-(LV-Hygro) cells; assay: PEG fusions between BIO-pretreated EF4 (Nanog over-expressing) cells and NS-Oct4-(LV-Hygro) cells; settings: BIO-pretreated EF4 cells
Experimental: NS-Oct4-(LV-Hygro) cells were derived from NS-Oct4-puro and transduced with the letiviral pHRcPPT-PGK-Hygromycin vector. EF4 cells carrying the CAG promoter driving Nanog and Puromycin resistance genes were a gift of Dr. I. Chambers. Cells were cultured as previously described (Chambers et al., 2003).
NS×ES-Hygro or NS-HygroxEF4 cells PEG fusions were done as previously described. For the NS×ES-Hygro and NS×EF4 selection, Puromycin plus Hygromycin was added after 72 h.

[3] = test system: ES-neo cells and ES×NS reprogrammed hybrids; assay: Clonogenicity and viability of ES cells and hybrids plated in BIO-containing medium; settings: scaled numbers plated
Experimental: FIG. 4. […] ES-neo cells (A) and ES×NS reprogrammed hybrids (B) (treated or not for 24 h with BIO) were plated at different densities. After 10 days, the plates were stained for AP and counted. The fold-changes in colonies are shown in the graphs (mean±s.e.m.; n=3).

[4] = test system: ES cells fused with NS-Oct4-puro cells; assay: Pretreated-ES×NS PEG fusions (ES cells pre-cultured with Wnt3a or BIO, then fused with non-treated NS-Oct4-puro cells); settings: for enhancement of NS reprogramming: ES cells cultured for 12, 48 and 72 h; for total reprogrammed clones / increase in the numbers of reprogrammed clones: ES cells pre-cultured for 24 h and 96 h; for increase in the numbers of reprogrammed clones: Wnt3a 100 ng/ml or BIO 1 μM
Experimental: On the last day, the cells were trypsinized, counted, and plated on NS cells for fusions or harvested for RNA and protein analyses. PEG fusions and drug selection were performed as previously described.

[5] = test system: Topflash reporter gene (β-catenin binding sites fused to luciferase); assay: Topflash luciferase reporter assay in ES cells; settings: 24 h
Experimental: ES cells were co-transfected by nucleofection (Amaxa) with the Topflash reporter construct driving firefly luciferase cDNA and a pRL-CMV driving constitutive expression of renilla cDNA for normalization. Treatments with Wnt3a and BIO were carried out the day after the nucleofection and cells were lysed with 1× passive reporter lysis buffer. Firefly and renilla reporter activities were measured using a 96-well-based luminometer and were detected as per manufacturer instructions (Promega Dual-Light system),

[6] = test system: NS-Oct4-puro cells; assay: BIO-pretreated NS-Oct4-puro cells fused with non-treated ES-neo cells; settings: NS cells pretreated with BIO before fusion
Experimental: FIG. 12. […] (A) Plates containing fused hybrid colonies between BIO-treated NS-Oct4-puro cells and non-treated ES-neo cells. The clones were stained for the expression of AP and counted. The fold-change increases in the reprogrammed colonies are shown in the graph (mean±s.e.m.; n=3). (B) Example of a reprogrammed colony isolated from ES-neo cells fused with NS-Oct4-puro cells pretreated with BIO for 24 h. (C) Western blotting of total protein extracts of the NS-Oct4-puro cells at the indicated treatment times.
ES×NS and ES×MEF PEG fusions: 1.2×10^6 NS cells or MEFs were plated into T25 flasks. After 2 h, 1.2×10^6 ES cells were plated onto them, allowing them to attach to the NS cells or MEFs. After a further 2 h, 1 ml 50% (w/v) PEG 1450 (Sigma; pre-warmed to 37° C.) was added for 2 min, and then the cells were washed three times with serum-free DMEM. […] After 12 h, the cells were trypsinized and plated into gelatin+laminin-treated p100 dishes. For the ES×NS selection, puromycin was added after 72 h, while for the ES×MEF selection, hygromycin plus neomycin were added after 24 h.

[7] = test system: ES-GFP cells with NS-Oct4-puro cells; assay: FACS analysis of the primary fusion products (ES-GFP × NS-Oct4-puro, 3 h after PEG fusion)
Experimental: ES-GFP cells were treated or not with BIO for 12, 24, 48, 72 and 96 h and subsequently PEG fused with NS-Oct4-puro cells. Hybrids were trypsinized, counted, resuspended in PBS (1×10^6 cells per point) and centrifuged. Then, 0.1 ml of 4% paraformaldehyde solution was added to the cells and they were incubated for 15 min. Blocking solution (0.1% Triton, 10% goat-serum, in PBS) was subsequently added and the cells incubated for 1 h. The cells were then labelled with α-nestin (1:100) (ab6142, Abcan) overnight. The day after, the cells were incubated with the secondary antibody conjugated with PE fluorocrome (1:50) (ab7002 Abcam) for 1 h. FACS analyses were performed using a BDBiosciences FACSAria cytometer.

[8] = test system: Nanog, Oct4, Rex1, Fgf4, c-Myc; assay: Semiquantitative and quantitative RT-PCR of ES-cell genes and β-catenin targets in pretreated ES cells; settings: for expression of pluripotent genes Nanog, Oct4, Rex1 and Fgf4: all treatment times; for c-Myc expression: under Wnt3a and BIO treatments
Experimental: For RT-PCR, the total RNA was extracted from ES cells and from embryoid bodies (200 embryoid bodies for each clone and for each differentiation time point) using the RNeasy Kit (Qiagen), and the cDNA was generated using superscript III (Invitrogen). The primers used were: […]
RNA isolation and reverse transcription were carried out as described for semiquantitative RT-PCR. The template for each PCR reaction was the cDNA obtained from 16 ng total RNA in a 25-μl reaction volume. Platinum SYBR green qPCix-UDG (Invitrogen) was used with an ABprism 7000 real-time PCR machine, according to the manufacturer recommendations. The primers used were: […]

[9] = test system: NS cells; assay: Toxicity of BIO to NS cells (data not shown); settings: BIO concentrations higher than 1 μM
[10] = test system: ES-neo×MEF-hygro; assay: PEG fusion of ES-neo cells with MEF-hygro cells, hybrids treated after fusion; reprogrammed AP-positive clones counted
Experimental: (§1) ES×NS and ES×MEF PEG fusions: 1.2×10^6 NS cells or MEFs were plated into T25 flasks. After 2 h, 1.2×10^6 ES cells were plated onto them, allowing them to attach to the NS cells or MEFs.

[11] = test system: ES-hygro×thymocyte-neo cells; assay: ES×thymocyte fusion, hybrids cultured in BIO; reprogrammed clones counted
Experimental: ES×thymocyte fusions: the cells were fused in suspensions as previously described (Silva et al., 2006). After fusion, they were packed by centrifugation and the supernatant was discarded. The pelleted cells were resuspended in complete ES-cell medium and plated. The selection was carried out after 24 h, using hygromycin plus neomycin.

[12] = test system: ES-neo×NS-Oct4-puro cells; assay: PEG fusion of ES-neo cells with NS-Oct4-puro cells, hybrids treated after fusion; AP-positive puromycin-resistant reprogrammed colonies counted; settings: for reprogrammed clones with respect to the control (fold): 24 h culture after fusion, Wnt3a 100 ng/ml or BIO 1 μM; for number of reprogrammed clones after prolonged treatment: 48 h of treatment after fusion
Experimental: as §1

[13] = test system: β-catenin; assay: Western blotting and immunofluorescence of β-catenin in treated ES cells
Experimental: ES cells were washed twice with phosphate-buffered saline (PBS), fixed with 4% paraformaldehyde and blocked in 5% goat serum for 40 min. […] The cells were then washed and mounted on slides with a few drops of Vectashield with DAPI (Vector Laboratories).

[14] = cultured in BIO for 12, 24 and 48 h, double-drug selected
[15] = increased treatment time with BIO
[16] = increasing BIO concentrations, 24 h

Molecule: O=C1Nc2cc(Br)ccc2/C1=C1/Nc2ccccc2/C1=N\O [BIO, 6-bromoindirubin-3′-oxime]
- number of clones after ES×ES fusion (PEG-mediated fusion) [1]: only a slight increase
- reprogramming of NS cells with Nanog over-expression plus Wnt pathway activation [2]: cooperate to enhance reprogramming
- clonogenicity and viability in absence vs presence of BIO [3]: equal
- enhancement of NS reprogramming [4]: poor enhancement
- total reprogrammed clones [4]: about 2,000 total clones
- increase in the numbers of reprogrammed clones [4]: ≤ 80 fold
- activation of the Topflash reporter gene ([5]; 1 μM BIO): relatively limited activation
- Topflash activation with increasing concentration ([5]; increasing BIO concentrations): increased Topflash activation
- number of ES-cell-like, AP-positive reprogrammed clones [6]: only a slight increase
- number of hybrid clones, ES cells pre-treated or not with BIO before fusion [7]: same number of hybrid clones
- expression of pluripotent genes Nanog, Oct4, Rex1 and Fgf4 [8]: same levels
- c-Myc expression [8]: constantly expressed
- toxicity to NS cells [9]: slightly toxic
- increase in numbers of reprogrammed selected clones vs fusions in the absence of BIO [10, 14]: up to 20 fold
- reprogramming efficiency with increased treatment time [10, 15]: lower
- increase in numbers of reprogrammed selected clones vs fusions in the absence of BIO [11, 14]: ≤ 9 fold
- reprogramming efficiency with increased treatment time [11, 15]: lower
- reprogrammed clones with respect to the control (fold) [12]: up to 70 fold
- number of reprogrammed clones after prolonged treatment [12]: decreased
- time of BIO treatment giving the peak of reprogrammed clones ([12]; hybrids re-plated 3 h after fusion at a dilution without cell contact, BIO for 12, 24, 48 and 72 h): 24 h
- inhibition of GSK-3 in ES cells ([13]; 1 μM BIO): not fully inhibited
- levels of phospho-β-catenin with increasing concentration [13, 16]: decreased levels of phospho-β-catenin
- β-catenin nuclear localization with increasing concentration [13, 16]: increased β-catenin nuclear localization

B1: Wnt3a: Wnt protein isoform (R&D), Wnt/β-catenin pathway activator (protein, UniProt P56704 19-352, looked up)
Protein Wnt-3a: SYPIWWSLAVGPQYSSLGSQPILCASIPGLVPKQLRFCRNYVEIMPSVAEGIKIGIQECQHQFRGRRWNCTTVHDSLAIFGPVLDKATRESAFVHAIASAGVAFAVTRSCAEGTAAICGCSSRHQGSPGKGWKWGGCSEDIEFGGMVSREFADARENRPDARSAMNRHNNEAGRQAIASHMHLKCKCHGLSGSCEVKTCWWSQPDFRAIGDFLKDKYDSASEMVVEKHRESRGWVETLRPRYTYFKVPTERDLVYYEASPNFCEPNPETGSFGTRDRTCNVSSHGIDGCDLLCCGRGHNARAERRREKCRCVFHWCCYVSCQECTRVYDVHTCK
- enhancement of NS reprogramming [4]: poor enhancement
- total reprogrammed clones [4]: about 600 total clones
- increase in the numbers of reprogrammed clones [4]: Up to 15 fold
- expression of pluripotent genes Nanog, Oct4, Rex1 and Fgf4 [8]: same levels
- c-Myc expression [8]: constantly expressed
- increase in number of AP-positive reprogrammed clones ([10]; hybrids cultured with Wnt3a for 48 h): up to 5 fold
- reprogrammed clones with respect to the control (fold) [12]: up to 20 fold
- number of reprogrammed clones after prolonged treatment [12]: decreased
